Experimental data reported in patent US6617319B2, “Methods of use for 2-deoxy ecdysterone” (Council of Science and Industrial Research, priority 2000, dated 2003).
Where “and” joins values, the source holds several entries; their conditions need not be identical. Equal entries are not always repeated.

Assays:
guinea pig uterus = format: cell-based
Text: A female virgin guinea pig that was in oestrous and weighing around 400-500 gm was used for the test. The animal was killed by a stunning blow on the head. The abdomen was immediately cut open. The uterus was dissected out and placed in a petri plate containing aerated De Jalon's solution (M. N Ghosh, in fundamentals of Experimental Pharmacology, 1984, second edition, Scientific book agency, Calcutta). The uterus was freed from fat and the two uterine horns were separated by cutting the lower end. Only one horn was used for the experiment. Two small loops of thread were made at each end of the uterus and kept in a tissue bath of 10 ml capacity containing aerated De Jalon's solution. The lower end was tied to the tissue holder and the upper end to the writing lever. The lever was balanced to provide a tension of 1 g with plasticene. The tissue was left in the bath for ½ hr for stabilisation before starting the experiment and the physiological solution (De Jalon's solution) was renewed every 10 minutes. This example illustrates the procedure used for the preparation of the guinea pig uterus for testing the oxytocic property of the pure white solid, 2-deoxy ecdysterone.
After stabilisation, 2-3 doses of oxytocin (Parke Davis Ltd, Hyderabad) were added as standard to the physiological solution, the dose depending on the amplitude of contraction to obtain uniform contractions. The extract was then added to the bath (50 & 250 μg/ml) and allowed to act for one minute. If a contraction was observed during that one-minute period, extract was considered to be oxytocin-like and having oxytocic property. After every contraction, the tissue was immediately washed twice with the physiological solution and relaxed for 10 minutes. The same procedure was followed for the crude extract, fractions and the purified white solid, identified as 2-deoxy ecdysterone.
The oxytocic activity of the crude, fractions and the pure compound was tested on the guinea pig uterus based on its ability to contract the relaxed uterus. The tissue was spiked with a standard oxytocic agent which induces contraction of the tissue. The efficacy of the testing agent was measured by its ability to contract the uterus by comparing the height of contraction with the standard oxytocin (Table 1). This example illustrates the procedure used for testing the crude extract and the detailed procedure followed.

[1] = radiolabelled compound injected into human volunteers; within 5 hours; cited from earlier work

Molecule	% response compared to standard PGF2α (guinea pig uterus)	% response compared to standard oxytocin (guinea pig uterus)	Inducing contractions in the guinea pig uterus (guinea pig uterus)	Potency compared with standard oxytocin and PGF2α (guinea pig uterus)	Radioactivity excreted in the urine [1]
2-deoxy ecdysterone	69.4% and 82.3% and 114.1%	80.8% and 92.3% and 118.0%	effective	more potent than the standard oxytocin and PGF2α	
CCCCC[C@H](O)/C=C/[C@H]1[C@H](O)CC(=O)[C@@H]1C/C=C\CCCC(=O)O [PGE2]					about 50%
CCCCC[C@H](O)/C=C/[C@@H]1[C@@H](C/C=C\CCCC(=O)O)[C@@H](O)C[C@H]1O [PGF2α]					around 90%
